Earlier results, collected in US20150038674A1, “USE OF GLP-2 ANALOGUES IN PULMONARY DISEASES FOR THERAPEUTIC PURPOSE” (priority 2013, published 2015).

Tested on: patients with short bowel syndrome
Conditions: 11 patients with short bowel syndrome, s.c. 0.4 mg 3 times a day, 13, 26, 52 weeks; cited from earlier work

human GLP-2: Human glucagon like peptide 2, 33 amino acid sequence (SEQUENCE ID No. 1) (HADGSFSDEMNTILDNLAARDFINWLIQTKIT; listed as Homo sapiens)
intestinal morphology, absorption, renal functions, bone mineral density and muscle functions: does not change
